Results taken from patent publication US6610674B1, “Method of treating inflammatory conditions with progesterone analogs” (University of Pennsylvania, priority 1999, dated 2003).
Values joined by “and” are separate entries in the source; they are usually repeats but may differ in a detail not shown here. Identical values can stand only once.

Assays:
[1] = tested on: lymphocytes infiltrating the large bowel lamina propria; test: scid mouse model of Inflammatory Bowel Disease: lymphocytes infiltrating the large bowel lamina propria; type: in vivo, scid C.B.-17 mice; settings: for effect on lymphocyte infiltration into the bowel (in words): compared to buffer control; for effect on lymphocyte infiltration into the bowel (in words) / CD4+ Lymphocytes, Average / CD4+ as a percent of total Lymphocytes, Average / Total Lymphocytes, Average: 25 mg/kg orally each day; for CD4+ Lymphocytes, Average / CD4+ as a percent of total Lymphocytes, Average / Total Lymphocytes, Average: group average; for CD4+ Lymphocytes / CD4+ as a percent of total Lymphocytes / Total Lymphocytes: individual mouse, 25 mg/kg orally each day until sacrifice, lamina propria, 25 mg/kg
Description: The scid (severe combined immunodeficient) C.B.-17 line of mice provide an effective model of Inflammatory Bowel Disease. The disease state in these mice is triggered by the intraperitoneal injection of CD4+ T cells from a normal BALB/C mouse. The induced disease is characterized by intestinal inflammation in the large intestine, leukocytic infiltrates into the mucosa, submucosa, and mucularis, epithelial cell hyperplasia, loss of mucin-secreting cells, and ulcers with deep fissures, and diarrhea. In the mouse model, CD4+ T cells and macrophages infiltrate the bowel. The scid mouse is recognized by the art as a model for IBD. Powrie et al., Inhibition of Th1 Responses Prevents Inflammatory Bowel Disease in scid Mice Reconstituted with CD45RBhi CD4+ T Cells, Immunity 1:553-562 (1994).
500,000 to 1×10^6 T cells derived from the lymph nodes of normal BALB/C mice were injected intraperitoneally into scid mice 6 weeks prior to sacrifice. 2 days before lymphocyte administration, treatment of the scid mice began with buffer control, medroxyprogesterone acetate, or 17-hydroxyprogesterone. The treatment mice (5 in each group) received 25 mg/kg of drug orally each day until sacrifice.
After sacrifice, lamina propria (bowel wall) lymphocytes were isolated from each animal. The total number of lymphocytes, number of CD4+ lymphocytes, and the percent of CD4+ lymphocytes was determined. CD4+ lymphocytes were identified by using a first antibody directed to CD4, and a second antibody directed to the first antibody. The second antibody was tagged with fluorescein, which lights up as green in a flow cytometer, identifying which lymphocytes are the CD4+ form. Lymphocyte infiltration into the bowel is a predictor of the progress of the disease because lymphocytes are involved in the inflammatory response leading to damage of the bowel wall.

[2] = tested on: IL-6 release from macrophages; test: IL-6 release (ELISA) from spleen macrophages of treated mice; type: cell-based, mouse
Method: The spleens of four of the mice from Example 1 were removed after the animals were sacrificed. Macrophages were isolated from the spleen of the medroxyprogesterone acetate or buffer control treated mice. IL-6 release from these macrophages was measured by ELISA following stimulation with rat anti-mouse macrophage Fc receptor antibody 2.4G2 and F(ab′)2 IgG goat anti-rat antibody. The effect of medroxyprogesterone acetate on IL-6 release is illustrated in Table 3.

[3] = tested on: Patients with mild to moderate Crohn's disease; test: Treatment of patients with Crohn's disease (CDAI); type: in vivo, human
Method: Patients with mild to moderate Crohn's disease were evaluated for their response to treatment with […]. Patients in the treatment group (12 patients) recieved a loading dose of 1 gram of medroxyprogesterone acetate every 6 hours for 8 doses. These patients were then given 500 mg of medroxyprogesterone every 12 hours for 8 weeks.
Disease improvement was measured using the Crohn's Disease Activity Index (CDAI). The CDAI score for a patient was calculated by multiplying the numerical value for each variable by multiplication factor indicated for that variable, and totaling all of the resultant values, as shown in Table 5. A score below 150 indicated remission and a score above 450 indicated severe disease. In order to enter the study, patients were required to have a total CDAI score of 200 to 400 at baseline.
Disease remission was defined as a CDAI score of 150 or below. Disease response was defined as either a decrease of 70 or greater in the CDAI or disease remission.

[4] = tested on: TNF-α release from macrophages; test: TNF-α release (ELISA) from spleen macrophages of treated mice; type: cell-based, mouse
Method: The spleens of six of the mice from Example 1 were removed after the animals were sacrificed. Macrophages were isolated from the spleen of the medroxyprogesterone acetate or buffer control treated mice. TNF-α release from these macrophages was measured by ELISA following stimulation with either (1) rat anti-mouse macrophage Fc receptor antibody 2.4G2 and F(ab′)2 IgG goat anti-rat antibody, or (2) phorbol myristate acetate (“PMA”), a phorbol ester. The effect of medroxyprogesterone acetate on TNF-α release is illustrated in Table 2.

[5] = tested on: Patients with mild to moderate ulcerative colitis; test: Treatment of patients with ulcerative colitis (Disease Activity Index); type: in vivo, human
Method: Patients with mild to moderate ulcerative colitis were evaluated for their response to treatment with medroxyprogesterone acetate. Patients in the treatment group (8 patients) received a loading dose of 1 gram of medroxyprogesterone acetate every 6 hours for 8 doses. These patients were then given 500 mg of medroxyprogesterone every 12 hours for 8 weeks.
Disease improvement was measured using the Disease Activity Index (DAI). The DAI is a total score for stool frequency, blood in the stool, the investigator's global assessment (IGA), and the physician's evaluation of the appearance of mucosa during flexible sigmoidoscopy of the colon.

[6] = individual mouse, stimulation 2.4G2 and F(ab′)2 IgG anti-rat, listed as MPA

CC(=O)[C@@]1(O)CC[C@H]2[C@@H]3CCC4=CC(=O)CC[C@]4(C)[C@H]3CC[C@@]21C [17-hydroxyprogesterone]
effect on lymphocyte infiltration into the bowel (in words) [1]: did not work in treating the mice
CD4+ Lymphocytes, Average [1]: 16.3 1 × 106
CD4+ as a percent of total Lymphocytes, Average [1]: 88.0%
Total Lymphocytes, Average [1]: 18.4 1 × 106
CD4+ Lymphocytes [1]: 8.9 1 × 106 and 1.6 1 × 106 and 15 1 × 106 and 23 1 × 106
CD4+ as a percent of total Lymphocytes [1]: 89% and 81% and 93% and 91%
Total Lymphocytes [1]: 10 1 × 106 and 2 1 × 106 and 16.5 1 × 106 and 25.2 1 × 106

CC(=O)O[C@]1(C(C)=O)CC[C@H]2[C@@H]3C[C@H](C)C4=CC(=O)CC[C@]4(C)[C@H]3CC[C@@]21C [Medroxyprogesterone Acetate, pregn-4-ene-3,20-dione, 17-(acetyloxy)-6-methyl-, (6α)-]
effect on lymphocyte infiltration into the bowel (in words) [1]: effective in decreasing lymphocyte infiltration into the bowel
CD4+ Lymphocytes, Average [1]: 3.8 1 × 106
CD4+ as a percent of total Lymphocytes, Average [1]: 81.4%
Total Lymphocytes, Average [1]: 4.5 1 × 106
CD4+ Lymphocytes [1]: 1.6 1 × 106 and 4.1 1 × 106 and 1.3 1 × 106 and 3.0 1 × 106 and 9.2 1 × 106
CD4+ as a percent of total Lymphocytes [1]: 81% and 87% and 65% and 83% and 91%
Total Lymphocytes [1]: 2 1 × 106 (2×) and 4.8 1 × 106 and 3.6 1 × 106 and 10.2 1 × 106
IL-6 Measurement [2, 6]: 298,940 and 266,557
effect on IL-6 release from macrophages (in words) ([2]; macrophages from treated mice): may be inhibiting IL-6 release from macrophages
adverse event leading to drop out ([3]; 12 patients treated): One patient dropped out for a minor adverse event (fatigue)
Remissions (CDAI score of 150 or below) ([3]; Completers (10 patients), 8 weeks): 7
TNF-α Measurement [4, 6]: 2314 pg/mL and 27563 pg/mL and 1843 pg/mL
TNF-α Repeat Measurement [4, 6]: 1026 pg/mL and 0 pg/mL
TNF-α Repeat Measurement ([4]; individual mouse, stimulation PMA for Repeat Measurement): 0 pg/mL
effect on TNF-α release from macrophages (in words) ([4]; macrophages from treated mice): may be inhibiting TNF-α release from macrophages
patients showing improvement with treatment ([5]; 8 weeks, 8 patients): Five out of eight
Improvement (reduction of one or more units in DAI score at end of study vs baseline) ([5]; individual patient, 1 g every 6 hours for 8 doses, then 500 mg every 12 hours for 8 weeks): Yes (5×) and No (3×)
non-responders with reduction in symptoms and complaints during initial treatment ([5]; of the 3 patients who did not respond at end of 8 week study): 2 patients
